Experimental data: PMC12150283, “Synthesis of new Ag(I) and Cd(II) hydrozanomide-based complexes with antibacterial and anticancer properties” (RSC Advances, 2025)
≈ marks a conversion by molar mass, not a printed value. Like-named read-outs stand apart in the source and are kept apart here.

Experiments:
[1] = tested on: Escherichia coli ATCC 10530; assay: MIC determination; format: cell-based; details: Escherichia coli ATCC 10530; 18 h
Method: (§1) The antibacterial activity of tested samples was assessed against both gram-positive bacteria (Staphylococcus aureus ATCC 25923, Staphylococcus aureus ATCC 6538, Staphylococcus epidermidis ATCC 12228, Enterococcus faecalis ATCC 29212, Listeria monocytogenes ATCC 19115, Bacillus subtilis ATCC 6633, Bacillus cereus ATCC 10876) and gram-negative bacteria (Escherichia coli ATCC 10530, Salmonella typhimurium ATCC 14028). Antibacterial properties were evaluated using both the dilution method (employing DMSO and 96-well plates) and the diffusion-well method (using Mueller Hinton Agar, Merck, Germany).
(§2) The minimum inhibitory concentrations (MICs) of the tested samples were evaluated against a panel of reference microorganisms obtained from the American Type Culture Collection (ATCC), including Gram-negative bacteria (Escherichia coli ATCC 10530, Salmonella typhimurium ATCC 14028), and Gram-positive bacteria (Staphylococcus aureus ATCC 25923, Staphylococcus aureus ATCC 6538, Staphylococcus epidermidis ATCC 12228, Enterococcus faecalis ATCC 29212, Listeria monocytogenes ATCC 19115, Bacillus subtilis ATCC 6633), and one strain (Bacillus cereus ŁOCK 0807) obtained from the Pure Culture of Industrial Microorganisms of the Institute of Fermentation Technology and Microbiology ŁOCK 105 (Łódź, Poland).
(§3) The microorganism cultures with a density of 1.5 × 10^8 CFU mL^−1 (corresponding to a McFarland standard of 0.5) were plated on Mueller–Hinton Agar (Merck, Germany) following the procedures recommended by the European Committee on Antimicrobial Susceptibility Testing (EUCAST).[47] Wells measuring 10 mm in diameter were cut into the medium. The tested compounds were dissolved in a DMSO solution, which was recommended due to their chemical structures. Subsequently, 100 μL of prepared solutions containing the tested compounds at concentrations ranging from x μg mL^−1 to x μg mL^−1 were added to each well. The plates were incubated at 30 °C (for Bacillus subtilis and Bacillus cereus) or 37 °C (for other bacteria) for 18 hours. After incubation, the minimum inhibitory concentration (MIC value) was determined (the lowest concentration of the tested compounds that prevents bacterial growth) and expressed in μg mL^−1. The experiment was conducted in three independent replicates. Ciprofloxacin (Sigma Aldrich, Saint Louis, MO, USA) was used as a reference antimicrobial agent against Gram-negative bacteria, while vancomycin (Sigma Aldrich, Saint Louis, MO, USA) was used as a reference antimicrobial agent against Gram-positive bacteria.

[2] = tested on: Salmonella typhimurium ATCC 14028; assay: MIC determination; format: cell-based; details: 18 h
Method: as §1, §2, §3

[3] = tested on: Bacillus cereus ŁOCK 0807; assay: MIC determination; format: cell-based; details: 18 h
Method: as §1, §2, §3

[4] = tested on: Bacillus subtilis ATCC 6633; assay: MIC determination; format: cell-based
Method: as §1, §2, §3

[5] = tested on: Enterococcus faecalis ATCC 29212; assay: MIC determination; format: cell-based; details: E. faecalis ATCC 29212, 18 h
Method: as §1, §2, §3

[6] = tested on: Listeria monocytogenes ATCC 19115; assay: MIC determination; format: cell-based; details: Listeria monocytogenes ATCC 19115, 18 h
Method: as §1, §2, §3

[7] = tested on: Staphylococcus aureus ATCC 25923; assay: MIC determination; format: cell-based; details: S. aureus ATCC 25923, 18 h
Method: as §1, §2, §3

[8] = tested on: Staphylococcus aureus ATCC 6538; assay: MIC determination; format: cell-based; details: S. aureus ATCC 6538, 18 h
Method: as §1, §2, §3

[9] = tested on: Staphylococcus epidermidis ATCC 12228; assay: MIC determination; format: cell-based; details: S. epidermidis ATCC 12228, 18 h
Method: as §1, §2, §3

S. aureus ATCC 25923 = assay: Diffusion-well method, inhibition zones; format: cell-based, Staphylococcus aureus; details: 500 µg/mL, wells 10 mm
Method: as §1
(§4) 24 hour bacterial cultures with a density of 1–2 × 10^8 CFU mL^−1 were plated (0.1 mL) on Mueller–Hinton Agar (Merck, Germany). Subsequently, wells with a diameter of 10 mm were cut out from and filled with 100 μL of the tested compound at a concentration of 10–500 μg mL^−1 (diluted in DMSO). After an 18-hour incubation at either 30 °C (for Bacillus ssp.) or 37 °C (for other tested microorganisms), the inhibition zones around the wells were measured, and the results were expressed in millimetres (Table S9 ^†).

E. coli ATCC 10530 = assay: Diffusion-well method, inhibition zones; format: cell-based, Escherichia coli; details: 500 µg/mL, wells 10 mm
Method: as §1, §4

[10] = tested on: glioblastoma LN-229 cells; assay: MTT cell viability assay; format: cell-based, human; details: 48 hours of incubation
Method: (§5) The glioblastoma cell lines LN-229 and U87 and the reference human normal skin fibroblast BJ were obtained from the American Type Culture Collection (ATCC). Cells were grown as monolayers when cultured in cell culture flasks and cultured in Dulbecco's Modified Eagle Medium (DMEM) – LN-229 and Eagle's Minimum Essential Medium (EMEM) – U87 and BJ, supplemented with 10% (v/v) fetal bovine serum, penicillin (10 000 U mL^−1), streptomycin (10 mg mL^−1) and amphotericin B (250 μg mL^−1). The cells were incubated at 37 °C, 5% CO2 atmosphere. The cells were maintained in the logarithmic growth phase by regular passage at 80% confluence.
(§6) The cytotoxicity of the tested compounds was evaluated against both human glioblastoma LN-229 and U-87 as well as normal BJ cell lines. The cells were plated in 96-well culture plates (2 × 10^4 well) and after 24 h incubation the cells were treated with the tested compounds in the concentration range 1–50 μM. The cells were cultured for the next 48 h. The cytotoxicity of the compounds was evaluated using the MTT colorimetric method as previously described.[28,29] IC50 values were determined using the AAT Bioquest IC50 calculator as the concentration of compounds capable of reducing cell viability by 50%. The experiment was performed in triplicate for each concentration. To examine the cytotoxic effect of compounds on cell morphology, cells were examined under an inverted phase contrast microscope Nikon Eclipse Ti with NIS Element software (Tokyo, Japan).

glioblastoma U87 cells = assay: MTT cell viability assay; format: cell-based, human; details: 48 hours of incubation
Method: as §5, §6

[11] = tested on: normal skin fibroblast BJ cells; assay: MTT cell viability assay; format: cell-based, human; details: BJ normal fibroblasts, 48 hours of incubation
Method: as §5, §6

[12] = Time-dependent UV-vis solution stability in DMSO; format: physicochemical; details: 0 min to 48 h, room temperature
Source text: The stability of metal complexes is a crucial property that provides insight into their interactions with biological molecules, as it directly impacts their reactivity, bioavailability, and effectiveness in therapeutic applications. Additionally, the solubility of these complexes in dimethyl sulfoxide (DMSO) is of considerable importance, as solubility data are essential for optimizing storage conditions and ensuring compatibility with biological assays.[39] DMSO, a widely used solvent in drug discovery, serves as a medium that supports the stability and bioavailability of complexes under assay conditions, which is critical for maintaining the integrity of analytical protocols and enabling accurate assessments of biological activity. For the obtained complexes, the time-dependent UV-vis investigations in DMSO (Fig. 5 and S9 ^†) were carried out from 0 min to 48 h (0 min, 30 min, 1 h, 2 h, 3 h, 24 h, 48 h).
The sample solutions (50 μL (1.0 × 10^−3 M)) of the complexes were prepared in DMSO (Sigma Aldrich, ≥99.9%). The absorption spectra of the complexes were measured with increasing time (0 min, 30 min, 60 min, 2 h, 3 h, 24 h, 48 h) at room temperature. All measurements were performed on the Shimadzu UV-2401PC.

S. aureus ATCC 6538 = assay: Diffusion-well method, inhibition zones; format: cell-based, Staphylococcus aureus; details: 500 µg/mL, wells 10 mm
Method: as §1, §4

E. faecalis ATCC 29212 = assay: Diffusion-well method, inhibition zones; format: cell-based, Enterococcus faecalis; details: 500 µg/mL, wells 10 mm
Method: as §1, §4

B. cereus ŁOCK 0807 = assay: Diffusion-well method, inhibition zones; format: cell-based, Bacillus cereus; details: 500 µg/mL, wells 10 mm
[13] = tested on: L. monocytogenes ATCC 19115; assay: Diffusion-well method, inhibition zones; format: cell-based, Listeria monocytogenes; details: 500 µg/mL, wells 10 mm
Method: as §1, §4

B. subtilis ATCC 6633 = assay: Diffusion-well method, inhibition zones; format: cell-based, Bacillus subtilis; details: 500 µg/mL, wells 10 mm
Method: as §1, §4

Row | Structure (SMILES) | MIC [1] [µg/mL] | MIC ([3]; Bacillus cereus ŁOCK 0807) [µg/mL] | MIC ([4]; 18 h) [µg/mL] | MIC [5] [µg/mL] | MIC [6] [µg/mL] | MIC ([2]; S. typhimurium ATCC 14028) [µg/mL] | MIC [7] [µg/mL] | MIC [8] [µg/mL] | MIC [9] [µg/mL] | Inhibition zone (S. aureus ATCC 25923) [mm] | Inhibition zone (E. coli ATCC 10530) [mm] | IC50 [10] [µM] | IC50 (glioblastoma U87 cells) [µM] | IC50 [11] [µM] | hypochromic effect [12] [%] | Inhibition zone (S. aureus ATCC 6538) [mm] | further results
1 | O=C(O)c1cn(C2CC2)c2cc(N3CCNCC3)c(F)cc2c1=O [Ciprofloxacin, reference compound] | 1 (≈ 3.02 µM) | – | – | – | – | – | – | – | – | – | – | – | – | – | – | – | MIC ([2]; Salmonella enterica): 1 µg/mL (≈ 3.02 µM)
2 | NC(=NN=Cc1ccccc1)c1cc(Cl)ccn1.[Cd+2].[Cl-].[Cl-] [Complex 8, CdL3Cl2] | 10 | > 500 | > 500 | > 500 | > 500 | > 500 | 100 | 500 | > 500 | 15 | 20 | > 50 | 10.9 ± 3.8 | 25.8 ± 4.48 | 36.3 | – | shift of peak maxima [12]: 4 nm
3 | NC(=NN=Cc1ccc([N+](=O)[O-])cc1)c1cccc(Cl)n1.NC(=NN=Cc1ccc([N+](=O)[O-])cc1)c1cccc(Cl)n1.[Cd+2].[Cl-].[Cl-] [Complex 7, Cd (L2)2Cl2] | 500 | > 500 | > 500 | > 500 | > 500 | > 500 | 100 | 500 | > 500 | 15 | 12 | > 50 | > 50 | 41.7 ± 4.18 | 27.7 | 13 | shift of peak maxima [12]: 15 nm
4 | NC(=NN=Cc1ccc([N+](=O)[O-])cc1)c1cccc(N2CCCC2)n1.[Cd+2].[Cl-].[Cl-] [Complex 9, CdL4Cl2] | 10 | 250 | > 500 | 10 | 500 | > 500 | 10 | 250 | > 500 | 16 | 20 | 45.3 ± 2.18 | > 50 | 1.05 ± 0.32 | – | 13 | Inhibition zone (E. faecalis ATCC 29212): 14 mm; Inhibition zone (B. cereus ŁOCK 0807): 13 mm; Inhibition zone [13]: 12 mm
5 | N/C(=N\N=C\c1ccc([N+](=O)[O-])cc1)c1cccc(Cl)n1 [Complex L2, 6-chloro-N′-(4-nitrobenzylidene) picolinohydrazonamide] | – | – | – | – | – | – | – | – | – | – | – | – | – | – | – | – | IC50 ([10]; Homo sapiens): 40.8 ± 6.12 µM; IC50 (glioblastoma U87 cells; Homo sapiens, U-87 MG): > 50 µM; IC50 ([11]; Homo sapiens): 35.5 ± 4.33 µM
6 | N.N.[Cl][Pt][Cl] [Cisplatin, reference compound] | – | – | – | – | – | – | – | – | – | – | – | 29.09 ± 0.23 | 39.6 ± 1.13 | > 50 | – | – | –
7 | NC(=NN=Cc1ccccc1)c1cc(Cl)ccn1 [Complex L3, N′-(benzylidene)-4-chloropicolinohydrazonamide] | – | – | – | – | – | – | – | – | – | – | – | – | – | – | – | – | IC50 ([10]; Homo sapiens): > 50 µM; IC50 (glioblastoma U87 cells; Homo sapiens, U-87 MG): > 50 µM; IC50 ([11]; Homo sapiens): > 50 µM
8 | CN[C@H](CC(C)C)C(=O)N[C@H]1C(=O)N[C@@H](CC(N)=O)C(=O)N[C@H]2C(=O)N[C@H]3C(=O)N[C@H](C(=O)N[C@H](C(=O)O)c4cc(O)cc(O)c4-c4cc3ccc4O)[C@H](O)c3ccc(c(Cl)c3)Oc3cc2cc(c3O[C@@H]2O[C@H](CO)[C@@H](O)[C@H](O)[C@H]2O[C@H]2C[C@](C)(N)[C@H](O)[C@H](C)O2)Oc2ccc(cc2Cl)[C@H]1O [Vancomycin, vancomycin, reference compound] | – | – | – | – | – | – | – | – | – | – | – | – | – | – | – | – | MIC ([3]; Bacillus cereus): 1 µg/mL (≈ 0.69 µM); MIC ([4]; ATCC6633, 18 h, read-out: MIC): 1 µg/mL (≈ 0.69 µM); MIC ([5]; Enterococcus faecalis, ATCC29212, read-out: MIC): 1 µg/mL (≈ 0.69 µM); MIC ([6]; ATCC19115, read-out: MIC): 2 µg/mL (≈ 1.38 µM); MIC ([7]; Staphylococcus aureus, ATCC25923, read-out: MIC): 1 µg/mL (≈ 0.69 µM); MIC ([8]; Staphylococcus aureus, ATCC6538, read-out: MIC): 1 µg/mL (≈ 0.69 µM); MIC ([9]; Staphylococcus epidermidis, ATCC12228, read-out: MIC): 1 µg/mL (≈ 0.69 µM)
9 | NC(=NN=Cc1ccccc1)c1cc(Cl)ccn1.O=[N+]([O-])[O-].[Ag+] [Complex 3, AgL3NO3] | 10 | 50 | 10 | 50 | 10 | 500 | 100 | 50 | 250 | 15 | 20 | > 50 | 32 ± 7.08 | > 50 | 2.31 | 15 | Inhibition zone (E. faecalis ATCC 29212): 13 mm; Inhibition zone (B. cereus ŁOCK 0807): 18 mm; Inhibition zone [13]: 19 mm; Inhibition zone (B. subtilis ATCC 6633): 17 mm
